Assay results published in PMC12259270, “Sensory neuron–expressed FGF13 controls nociceptive signaling in diabetic neuropathy models” (The Journal of Clinical Investigation, 2025).
Where “and” joins values, the source holds several entries; their conditions need not be identical. Identical values can stand only once. Residues, ends and D or L forms follow the SMILES beside them. *: point of attachment. Cbz = O=C(OCc1ccccc1)*; NHPh = c1ccc(N*)cc1; OtBu = CC(C)(C)O*

Biological target: T1, FGF13R110A/Nav1.7 complex (Homo sapiens, UniProt Q15858+Q92913, R110A)
T1 construct: Full-length FGF13-1b (aa 1-192) was subcloned into appropriate plasmids; Nav1.7 residues 1780-1977; expressed in transfected cells; host or cells: HEK293 (inferred; the LCA paragraph only says 'cells')
Assay: LCA, CLuc-FGF13R110A/CD4-Nav1.7-CTD-NLuc
Type: cell-based
Conditions: for activity against the FGF13R110A/Nav1.7 complex: LCA, PW164 20 μM, ZL192 50 μM
Source text: The respective gene ID numbers used in this study are as follows: NM_033642 (human, FGF13-1b) and NM_002977 (human SCN9A). Full-length FGF13-1b (aa 1-192) was subcloned into appropriate plasmids for use in this investigation, unless otherwise noted. For consistency with AlphaFold modeling presented, numbering of point mutations to FGF13-1b are based on the longest FGF13 isoform (FGF13-1a, NM_004114.2). CLuc-FGF13, […]
and constructs expressing the CLuc or the NLuc fragments of Firefly ( Photinus pyralis) luciferase (24) respectively were engineered, mutated (CLuc-FGF13R110A) and sequenced at the Molecular Genomics Core (University of Texas Medical Branch). The CD4 -Nav1.7-CTD-NLuc cassette was synthesized from GeneArt (Nav1.7 residues 1780-1977) (ThermoFisher) and subcloned at 5'-HindIII and 3’-BsiWi restriction sites in pcDNA3.1 (Invitrogen). Additionally, FGF13 was amplified with polymerase chain reaction (PCR) by using gene-specific primers, and subcloned in pcDNA3.1 at 5’ -BsiWi and 3’-Not I restriction sites. […]
Cell Culture and transfections
HEK293 cells were purchased from ATCC (catalog # CRL-1573). Cells were cultured and incubated at 37 °C with 5% CO2 in medium with equal volumes of Dulbecco modified essential medium (DMEM) and F12 […]
Split-luciferase Complementation Assay (LCA)
Twenty-four hours post transfection, cells were trypsinized using TrypLE (Gibco; cat # 12604013), centrifuged at 1750 rpm for 5 min, triturated in medium, and seeded into white clear-bottom 96-well CELLSTAR µClear® plates (Greiner Bio -One; cat # 655073 ) at ~0.8 x 10^5 cells per well in 200 µl of medium. The cells were incubated for another 24 hours, and then the growth medium was replaced with 100 µl serum -free, phenol red -free DMEM/F-12 medium (Invitrogen). All compounds from the PW - and the ZL-series, including PW164 and ZL192, were dissolved in DMSO, added to a final concentration of 1 –500 μM (0.5 % DMSO) in the serum -free medium and then cells were incubated for two hours. The bioluminescence reaction was initiated by injection of 100 μl of D -luciferin substrate (1.5 mg/ml dissolved in PBS) using a Synergy H4 multimode microplate reader (BioTek). Luminescence readings were initiated after 3 s of mild plate shaking and performed at 2 min intervals for 20-30 min with integration times of 0.5 s, and the c ells were maintained throughout the measurements at 37 °C. Raw signal intensity was computed by averaging peak luminescence plus two adjacent time points.
Normalized signal intensity was expressed as the percentage of mean signal intensity relative to per plate control wells treated with 0.5% DMSO.
Surface plasmon resonance (SPR)
All SPR experiments were performed on a Biacore T100 (GE Healthcare). Biotin-Nav1.7-CTD peptide […]

T1 sequence (Q92913 1-192 isoform Q92913-2 R57A): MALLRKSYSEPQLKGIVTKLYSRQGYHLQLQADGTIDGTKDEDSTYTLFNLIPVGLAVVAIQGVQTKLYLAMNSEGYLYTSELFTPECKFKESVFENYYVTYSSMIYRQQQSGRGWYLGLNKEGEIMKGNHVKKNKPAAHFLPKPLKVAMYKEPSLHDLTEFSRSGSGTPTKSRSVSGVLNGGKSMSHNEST
T1 sequence (Q15858 1791-1988): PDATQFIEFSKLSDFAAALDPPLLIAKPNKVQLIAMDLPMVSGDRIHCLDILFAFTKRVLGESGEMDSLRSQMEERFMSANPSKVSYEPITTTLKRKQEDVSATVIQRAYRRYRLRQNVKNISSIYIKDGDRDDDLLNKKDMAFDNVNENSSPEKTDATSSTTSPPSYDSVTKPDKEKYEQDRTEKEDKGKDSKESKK

Structure (SMILES) | Percentage luminescence, single replicates (Fig 1B, FGF13R110A, PW164 (20 μM)) | activity against the FGF13R110A/Nav1.7 complex | LCA signal, FGF13R110A (Figure 1B), individual replicates (FGF13R110A, ZL192 vs Vehicle)
COC(=O)[C@@H](NC(=O)[C@H](CCC(=O)OC(C)(C)C)NC(=O)[C@H](CC(C)C)NC(=O)[C@@H]1CCCN1C(=O)OCc1ccccc1)C(C)C [PW164] (Cbz-PLE(OtBu)V-OMe) | 93.615% and 94.3116% and 89.4358% and 83.8635% and 99.0481% and 84.8386% and 92.9185% and 91.1075% and 93.4757% and 87.3462% and 108.8% | prevented PW164 binding | –
CC(=O)N[C@@H](Cc1ccccc1)C(=O)N[C@@H](CC(C)C)C(=O)N1CCC[C@H]1C(=O)N[C@@H](CCCCN)C(=O)Nc1ccccc1 [ZL192] (Ac-FLPK-NHPh) | – | no agonist activity | 170.87 and 102.219 and 90.2721 and 84.4389 and 144.478 and 146.648 and 93.2954 and 156.251 and 109.034 and 101.512 and 90.7701 and 115.348
